Where no end group is shown, it is not given here.
How the values were obtained:
[1] = test system: clinical isolates of S. mutans; assay type: cell-based, Streptococcus mutans; conditions: clinical isolates of
Description: S. mutans clinical isolates UA140 (32), UA159 (1), T8 (33), ATCC 25175, GS5 (Kuramitsu and Ingersoll (1977) Infect Immun., 17: 330-337), and all gram-positive strains listed below (see Table 9) were grown under anaerobic conditions in brain heart infusion or Todd-Hewitt (TH) broth (Difco) overnight at 37° C. prior to use (Eckert et al. (2006) Antimicrob. Agents Chemother. 50: 3651-3657). Veillonella atypica PK1910 was grown in Veillonella medium (Egland et al. (2004) Proc. Natl. Acad. Sci., USA, 101: 16917-16922). All strains were grown in an anaerobic atmosphere of 80% N2, 10% CO2, and 10% H2.
Antibacterial growth inhibition assays were performed using sterile 96-well plates in a final volume of 100 μl, TH or Veillonella medium as described previously (Qi et al. (2005) FEMS Microbial Lett. 251: 321-326). Briefly, bacterial cells were grown overnight to an optical density at 600 nm of 0.75 to 0.8 (corresponding to 1×10^8 CFU/ml) and then diluted to 1×10^5 CFU/ml in broth and aliquoted onto plates. An appropriate volume of peptide stock solution (5 to 20 mg/ml, in water or methanol, depending on solubility) was then added to the first column of the plate to give 500 μg/ml or 512 μg/ml, followed by serial 1:2 dilutions across the plate to give wells containing peptides ranging from 500 to 1.95 μg/ml or 512 to 2 μg/ml. Methanol alone was also added to control for the effects of the solvent. The plates were then incubated at 37° C. under anaerobic conditions for 16 to 20 h without shaking, and the MIC was determined as the concentration of peptide present in the last clear well after visual inspection. Up to 5% (vol/vol) methanol was found not to be antimicrobial (data not shown). MICs were determined in triplicate for all bacteria.

P. aeruginosa = assay: MIC against P. aeruginosa; assay type: cell-based, Pseudomonas aeruginosa

| Substance | MIC S. mutans [1] [µg/mL] | MIC P. aeruginosa (P. aeruginosa) [µg/mL] | MIC S. aureus (S. aureus) [µg/mL] | MIC E. faecalis (E. faecalis) [µg/mL] | MIC L. casei (L. casei) [µg/mL] |
| --- | --- | --- | --- | --- | --- |
| FIRKFLFKHLF [Peptide S3L8-26, FIRKFLFKHLF] | 16 | >125 | 62.5 | 24 | 16 |
| FKFKHKLIF [Peptide S3L8-36, FKFKHKLIF] | >125 | >125 | >125 | >125 | >62.5 |
| FKFLFKF [Peptide S3L8-42, FKFLFKF] | >125 | >125 | >125 | >125 | >62.5 |
| FKFLFKFLF [Peptide S3L8-38, FKFLFKFLF] | >125 | >125 | >125 | >125 | 32 |
| FKFLFKHKF [Peptide S3L8-40, FKFLFKHKF] | 30 | >125 | >125 | 62.5 | 62.5 |
| FKHKFKHKFIF [Peptide S3L8-30, FKHKFKHKFIF] | >125 | >125 | >125 | >125 | >62.5 |
| FLFKHLFLHRIFF [Peptide S3L8-16, FLFKHLFLHRIFF] | >125 | >125 | >125 | >125 | >62.5 |
| FLFRHRFRHRLVF [Peptide S3L8-28, FLFRHRFRHRLVF] | 60 | >125 | >125 | 62.5 | >62.5 |
| FLHKHLFKHKLF [Peptide S3L8-18, FLHKHLFKHKLF] | >125 | >125 | >125 | >125 | >62.5 |
| FLHKHVLRHRIVF [Peptide S3L8-14, FLHKHVLRHRIVF] |  | >125 | >125 | >125 | >62.5 |
| FRHRFRHRF [Peptide S3L8-34, FRHRFRHRF] | >125 | >125 | >125 | >125 | >62.5 |
| FVFRHKWVWKHRFLF [Peptide S3L8-1, FVFRHKWVWKHRFLF] | 16 | >125 | >125 | 32 | 62.5 |
| LHIHAHFHVHIHLHF [Peptide S3L8-8, LHIHAHFHVHIHLHF] |  | >125 | >125 | >125 | >62.5 |
| LILKFLFKFVF [Peptide S3L8-32, LILKFLFKFVF] | 31 | >125 | 16 | 16 | 16 |
| LKAKIKFKVKLKIKF [Peptide S3L8-11, LKAKIKFKVKLKIKF] | 8 | 32 to 62.5 | 125 | 39 | 3 |
| LKHKLKHKF [Peptide S3L8-35, LKHKLKHKF] | >125 | >125 | >125 | >125 | >62.5 |
| LRHRLRHRLIF [Peptide S3L8-31, LRHRLRHRLIF] | >125 | >125 | >125 | 125 | >62.5 |
| LRIHARFKVHIRLKF [Peptide S3L8-5, LRIHARFKVHIRLKF] | 60 | >125 | >125 | 12 | 8 |
| LRLFLRF [Peptide S3L8-43, LRLFLRF] | >125 | >125 | >125 | >125 | >62.5 |
| LRLFLRHRF [Peptide S3L8-41, LRLFLRHRF] | 16 | >125 | >125 | 62.5 | >62.5 |
| LRLFLRWLF [Peptide S3L8-39, LRLFLRWLF] | 16 | >125 | 16 | 32 | 16 |
| LRLRHRVLF [Peptide S3L8-37, LRLRHRVLF] | >125 | >125 | >125 | >125 | >62.5 |
| LVHKLILRHLLF [Peptide S3L8-22, LVHKLILRHLLF] | >125 | >125 | >125 | >125 | >62.5 |
| VFIVWVHKHVLF [Peptide S3L8-2, VFIVWVHKHVLF] |  | >125 | >125 | >125 | >62.5 |
| VFKRVLIHKLIF [Peptide S3L8-23, VFKRVLIHKLIF] | >125 | >125 | >125 | 32 | 62.5 |
| VFLHRHVIKHKLVF [Peptide S3L8-13, VFLHRHVIKHKLVF] |  | >125 | >125 | 125 | >62.5 |
| VFRHRFIHRHVF [Peptide S3L8-19, VFRHRFIHRHVF] | >125 | >125 | >125 | >125 | >62.5 |
| WRIHLRARLHVKFRF [Peptide S3L8-4, WRIHLRARLHVKFRF] |  | >125 | 62.5 | 8 | 8 |

From patent US8609608B2, “Antimicrobial peptides” (C3 Jian, Inc., priority 2007, dated 2013)
